In one assay the target is IKZF2 (Homo sapiens, UniProt Q96SW2+Q9UKS7). The assay can be described thus: Prolabel quantification of IKZF2 protein levels in 293GT cells. Format: cell-based. As for the experimental part:
(§1) The Prolabel system from DiscoverX was used to develop high-throughput and quantitative assays to measure changes in IKZF1, IKZF2 and GSPT1 protein levels in response to compounds. The prolabel tag was derived from the alpha fragment of beta galactosidase and has the following protein sequence: mssnslavvlqadwenpgvtqlnrlaahppfaswrnseeartdipsqqlislnge. The complementary fragment of beta-galactosidase (from DiscoverX), is added to the prolabel tag to form an active beta galactosidase enzyme whose activity can be precisely measured. In this way, the levels of a fusion protein with the prolabel tag can be quantified in cell lysates.
Lentiviral vectors, based on the Invitrogen pLenti6.2/V5 DEST backbone, were constructed that placed the prolabel tag upstream of IKZF1, IKZF2 or GSPT1 and expressed the fusion protein from a CMV promoter.
To ensure moderate and consistent expression of the prolabel fusion proteins across all cells in the population, stable cell lines were constructed from cells expressing a single copy of the construct. Lentivirus packaged with the constructs was made using the Virapower kit from Invitrogen.
The levels of prolabel tagged fusion proteins in compound treated cell lines were measured as follows:
Day 1, Cells were diluted to 1.0×10^6 cells/ml in normal growth medium. 17.5 μL of cells were plated in each well of a solid white 384 well plate. Plates were incubated overnight in a 37° C. tissue culture incubator.
Day 2, Serial dilutions of compounds were made in 384 well plates from 10 mM stocks. 15 μL of DMSO was added to each well of a 384 well plate. In the first column, 15 μL of stock compound was added. The solution was mixed and 15 μL was transferred to the next column. This was repeated until 20 two-fold dilutions were prepared. 2.5 μL of diluted compounds were transferred into 60 μL of cell culture medium in another 384 well plate, and mixed well. […] of this mixture was added to the plated cells. The final DMSO concentration was 0.5% and the highest concentration of compound was 50 μM. Plates were incubated overnight (e.g., about 14 h, 18 h, or 24 h) in a 37° C. tissue culture incubator.
Day 3, Plates were removed from the incubator and allowed to equilibrate at r.t. for 30 minutes. Prolabel substrate (DiscoverX PathHunter Prolabel Detection Kit, User manual: 93-0180) was added as described by the manufacturers protocols. Plates were incubated at r.t. for three hours and luminescence was read using an Envision reader (Perkin Elmer) Data was analyzed and visualized using the Spotfire software package.

A further assay deals with IKZF1 (Homo sapiens, UniProt Q13422+Q96SW2). In words: Prolabel quantification of IKZF1 protein levels in 293GT cells. It is filed as cell-based. The conditions noted are these: Prolabel assay. As for the experimental part:
as §1
Lentiviral vectors, based on the Invitrogen pLenti6.2/V5 DEST backbone, were constructed that placed the prolabel tag upstream of IKZF1, IKZF2 or GSPT1 and expressed the fusion protein from a CMV promoter. […]
The levels of prolabel tagged fusion proteins in compound treated cell lines were measured as follows: […]
Day 3, Plates were removed from the incubator and allowed to equilibrate at r.t. for 30 minutes. […] Plates were incubated at r.t. for three hours and luminescence was read using an Envision reader (Perkin Elmer) Data was analyzed and visualized using the Spotfire software package.

Where [1] appears, read: 10 μM, 24 h, Prolabel assay, 293GT cells.

Molecules are shown by their SMILES. Where two headings read alike, the source gives them in different places.

IKZF2, sequence (Q9UKS7 whole entry, the tested form may be a part): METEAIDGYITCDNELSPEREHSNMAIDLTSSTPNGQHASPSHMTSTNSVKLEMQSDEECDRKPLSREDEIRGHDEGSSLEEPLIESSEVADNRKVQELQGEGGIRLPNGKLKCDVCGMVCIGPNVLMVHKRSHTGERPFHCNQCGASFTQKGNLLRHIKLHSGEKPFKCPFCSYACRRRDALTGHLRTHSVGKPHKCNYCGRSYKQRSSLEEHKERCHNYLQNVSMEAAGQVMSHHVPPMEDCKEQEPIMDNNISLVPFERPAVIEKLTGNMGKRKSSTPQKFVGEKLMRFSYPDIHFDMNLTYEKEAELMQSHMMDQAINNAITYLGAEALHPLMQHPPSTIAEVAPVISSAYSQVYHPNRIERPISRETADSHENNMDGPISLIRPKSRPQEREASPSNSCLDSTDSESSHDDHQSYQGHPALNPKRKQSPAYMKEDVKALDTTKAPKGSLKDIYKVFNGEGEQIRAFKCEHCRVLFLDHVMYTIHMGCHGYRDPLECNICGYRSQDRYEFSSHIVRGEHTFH
IKZF2, sequence (Q96SW2 whole entry, the tested form may be a part): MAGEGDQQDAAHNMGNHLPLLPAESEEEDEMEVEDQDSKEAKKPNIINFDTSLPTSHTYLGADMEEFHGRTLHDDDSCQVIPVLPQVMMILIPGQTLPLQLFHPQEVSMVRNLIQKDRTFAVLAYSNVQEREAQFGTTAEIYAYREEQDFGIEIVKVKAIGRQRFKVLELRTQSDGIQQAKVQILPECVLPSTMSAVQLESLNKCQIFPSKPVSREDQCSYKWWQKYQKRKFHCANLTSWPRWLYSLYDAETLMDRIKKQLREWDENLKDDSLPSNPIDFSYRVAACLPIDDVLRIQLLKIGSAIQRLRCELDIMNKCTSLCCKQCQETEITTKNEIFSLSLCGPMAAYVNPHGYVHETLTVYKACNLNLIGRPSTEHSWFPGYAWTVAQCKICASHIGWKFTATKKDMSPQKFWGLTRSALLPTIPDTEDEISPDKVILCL
IKZF2, sequence (Q16531 whole entry partner, the tested form may be a part): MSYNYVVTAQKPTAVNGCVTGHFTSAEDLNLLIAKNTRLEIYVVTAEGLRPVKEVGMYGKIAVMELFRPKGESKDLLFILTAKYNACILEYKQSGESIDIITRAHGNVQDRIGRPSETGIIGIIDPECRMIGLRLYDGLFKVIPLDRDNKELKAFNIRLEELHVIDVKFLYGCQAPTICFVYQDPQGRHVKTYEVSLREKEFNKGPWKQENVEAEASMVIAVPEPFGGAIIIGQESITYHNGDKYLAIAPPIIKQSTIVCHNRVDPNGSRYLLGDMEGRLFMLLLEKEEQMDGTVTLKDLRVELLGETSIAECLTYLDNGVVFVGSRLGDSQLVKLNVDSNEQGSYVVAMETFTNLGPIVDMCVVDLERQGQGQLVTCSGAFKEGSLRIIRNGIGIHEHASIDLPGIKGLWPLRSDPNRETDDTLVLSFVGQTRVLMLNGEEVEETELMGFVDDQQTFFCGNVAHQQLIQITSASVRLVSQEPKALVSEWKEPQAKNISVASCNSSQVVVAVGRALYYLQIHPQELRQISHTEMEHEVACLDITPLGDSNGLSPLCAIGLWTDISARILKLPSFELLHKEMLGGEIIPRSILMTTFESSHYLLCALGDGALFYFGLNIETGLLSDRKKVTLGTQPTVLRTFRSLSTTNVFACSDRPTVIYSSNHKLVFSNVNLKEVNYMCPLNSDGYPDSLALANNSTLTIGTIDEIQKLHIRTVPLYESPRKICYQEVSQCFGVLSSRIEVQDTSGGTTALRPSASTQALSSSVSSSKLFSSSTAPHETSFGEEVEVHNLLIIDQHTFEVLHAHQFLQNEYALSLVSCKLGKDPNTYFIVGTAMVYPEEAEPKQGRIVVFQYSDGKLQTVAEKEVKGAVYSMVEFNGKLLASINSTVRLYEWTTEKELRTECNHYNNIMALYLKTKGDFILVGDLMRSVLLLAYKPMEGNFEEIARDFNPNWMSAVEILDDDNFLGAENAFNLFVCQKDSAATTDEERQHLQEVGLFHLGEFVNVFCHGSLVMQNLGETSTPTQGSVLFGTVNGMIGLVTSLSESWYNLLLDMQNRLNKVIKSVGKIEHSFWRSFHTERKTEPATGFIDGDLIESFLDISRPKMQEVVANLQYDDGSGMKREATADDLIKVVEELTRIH
IKZF1, sequence (Q13422 whole entry): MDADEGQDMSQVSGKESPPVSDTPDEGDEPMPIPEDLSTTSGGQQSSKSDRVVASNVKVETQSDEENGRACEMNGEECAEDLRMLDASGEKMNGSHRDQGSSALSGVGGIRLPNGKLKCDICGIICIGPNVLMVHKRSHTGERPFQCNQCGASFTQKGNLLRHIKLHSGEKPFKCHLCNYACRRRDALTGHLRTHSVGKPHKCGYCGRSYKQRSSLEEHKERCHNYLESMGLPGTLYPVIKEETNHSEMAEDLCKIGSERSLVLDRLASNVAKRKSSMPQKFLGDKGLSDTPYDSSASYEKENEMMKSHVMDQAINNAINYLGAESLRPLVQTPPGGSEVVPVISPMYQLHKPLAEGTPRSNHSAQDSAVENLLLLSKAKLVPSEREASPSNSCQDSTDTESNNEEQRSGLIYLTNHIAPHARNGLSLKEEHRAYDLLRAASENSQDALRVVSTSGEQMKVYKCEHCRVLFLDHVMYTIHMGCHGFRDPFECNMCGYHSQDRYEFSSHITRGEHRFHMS
IKZF1, sequence (Q96SW2 whole entry): as the sequence (Q96SW2 whole entry, the tested form may be a part) above
IKZF1, sequence (Q16531 whole entry partner): as the sequence (Q16531 whole entry partner, the tested form may be a part) above

Regarding `O=C1CCC(N2Cc3cc(-c4cn(Cc5ccccc5)cn4)ccc3C2=O)C(=O)N1` (stereo not shown) [Compound I-1, 3-(5-(1-benzyl-1H-imidazol-4-yl)-1-oxoisoindolin-2-yl)piperidine-2,6-dione], the “IKZF2 % protein reduction at 10 μM, 24 h” value at IKZF2 (setting [1]) was found to be 0%.

Take `Cc1c[nH]nc1-c1ccc2c(c1)CN(C1CCC(=O)NC1=O)C2=O` (stereo not shown) [Compound I-3, 3-(5-(4-methyl-1H-pyrazol-3-yl)-1-oxoisoindolin-2-yl)piperidine-2,6-dione]: at IKZF2 (setting [1]), the “IKZF2 % protein reduction at 10 μM, 24 h” value stood at 50%.

`Cc1cc(-c2ccc3c(c2)CN(C2CCC(=O)NC2=O)C3=O)nn1Cc1ccccc1` (stereo not shown) [Compound I-4, 3-(5-(1-benzyl-5-methyl-1H-pyrazol-3-yl)-1-oxoisoindolin-2-yl)piperidine-2,6-dione]: on IKZF2 (setting [1]), the “IKZF2 % protein reduction at 10 μM, 24 h” value turned out to be 50%.

`Cc1cc(-c2ccc3c(c2)CN(C2CCC(=O)NC2=O)C3=O)nn1Cc1ccc(C#N)cc1` (stereo not shown) [Compound I-5, 4-((3-(2-(2,6-dioxopiperidin-3-yl)-1-oxoisoindolin-5-yl)-5-methyl-1H-pyrazol-1-yl)methyl)benzonitrile]: the “IKZF2 % protein reduction at 10 μM, 24 h” value on IKZF2 (setting [1]) is 35%.

Regarding `O=C1CCC(N2Cc3cc(-c4nc5[nH]c(=O)ccc5[nH]4)ccc3C2=O)C(=O)N1` (stereo not shown) [Compound I-6, 3-(1-oxo-5-(5-oxo-4,5-dihydro-1H-imidazo[4,5-b]pyridin-2-yl)isoindolin-2-yl)piperidine-2,6-dione], the “IKZF2 % protein reduction at 10 μM, 24 h” value on IKZF2 stood at 75%.

Consider `CCn1nc(-c2ccc3c(c2)CN(C2CCC(=O)NC2=O)C3=O)cc1C(F)(F)F` (stereo not shown) [Compound I-7, 3-(5-(1-ethyl-5-(trifluoromethyl)-1H-pyrazol-3-yl)-1-oxoisoindolin-2-yl)piperidine-2,6-dione], for which, on IKZF2, the “IKZF2 % protein reduction at 10 μM, 24 h” value stood at 10%.

For the molecule `O=C1CCC(N2Cc3cc(-c4cc[nH]n4)ccc3C2=O)C(=O)N1` (stereo not shown) [Compound I-8, 3-(1-oxo-5-(1H-pyrazol-3-yl)isoindolin-2-yl)piperidine-2,6-dione], the “IKZF2 % protein reduction at 10 μM, 24 h” value on IKZF2 (setting [1]) is 10%.

On to `O=C1CCC(N2Cc3cc(-c4ccn(Cc5ccccc5)n4)ccc3C2=O)C(=O)N1` (stereo not shown) [Compound I-9, 3-(5-(1-benzyl-1H-pyrazol-3-yl)-1-oxoisoindolin-2-yl)piperidine-2,6-dione], for which the “IKZF2 % protein reduction at 10 μM, 24 h” value at IKZF2 (setting [1]) is reported as 20%.

Consider `CCn1nc(-c2ccc3c(c2)CN(C2CCC(=O)NC2=O)C3=O)c2ccccc21` (stereo not shown) [Compound I-11, 3-(5-(1-ethyl-1H-indazol-3-yl)-1-oxoisoindolin-2-yl)piperidine-2,6-dione], for which the “IKZF2 % protein reduction at 10 μM, 24 h” value at IKZF2 (setting [1]) was determined as 30%.

As to `O=C1CCC(N2Cc3cc(-c4nn(Cc5ccccc5)c5c4CCCC5)ccc3C2=O)C(=O)N1` (stereo not shown) [Compound I-15, 3-(5-(1-benzyl-4,5,6,7-tetrahydro-1H-indazol-3-yl)-1-oxoisoindolin-2-yl)piperidine-2,6-dione], on IKZF2 (setting [1]), the “IKZF2 % protein reduction at 10 μM, 24 h” value is recorded as 50%.

Take `Cc1cc(-c2ccc3c(c2)CN(C2CCC(=O)NC2=O)C3=O)n[nH]1` (stereo not shown) [Compound I-16, 3-(5-(5-methyl-1H-pyrazol-3-yl)-1-oxoisoindolin-2-yl)piperidine-2,6-dione]: the “IKZF2 % protein reduction at 10 μM, 24 h” value on IKZF2 (setting [1]) was 0%.

As to `Cc1cn(Cc2ccccc2)nc1-c1ccc2c(c1)CN(C1CCC(=O)NC1=O)C2=O` (stereo not shown) [Compound I-17, 3-(5-(1-benzyl-4-methyl-1H-pyrazol-3-yl)-1-oxoisoindolin-2-yl)piperidine-2,6-dione], the “IKZF2 % protein reduction at 10 μM, 24 h” value at IKZF2 (setting [1]) was 60%.

Consider `O=C1CCC(N2Cc3cc(-c4n[nH]c5ccccc45)ccc3C2=O)C(=O)N1` (stereo not shown) [Compound I-18, 3-(5-(1H-indazol-3-yl)-1-oxoisoindolin-2-yl)piperidine-2,6-dione], for which, on IKZF2 (setting [1]), the “IKZF2 % protein reduction at 10 μM, 24 h” value came to 40%.

As for `O=C1CCC(N2Cc3cc(-c4nn(Cc5ccccc5)c5ccccc45)ccc3C2=O)C(=O)N1` (stereo not shown) [Compound I-19, 3-(5-(1-benzyl-1H-indazol-3-yl)-1-oxoisoindolin-2-yl)piperidine-2,6-dione], the “IKZF2 % protein reduction at 10 μM, 24 h” value at IKZF2 (setting [1]) is given as 0%.

Consider `CCNc1cnnc(-c2ccc3c(c2)CN(C2CCC(=O)NC2=O)C3=O)c1` (stereo not shown) [Compound I-21, 3-(5-(5-(ethylamino)pyridazin-3-yl)-1-oxoisoindolin-2-yl)piperidine-2,6-dione], for which, at IKZF2 (setting [1]), the “IKZF2 % protein reduction at 10 μM, 24 h” value is given as 60%.

Turning to `CCNc1ccc(-c2ccc3c(c2)CN(C2CCC(=O)NC2=O)C3=O)nn1` (stereo not shown) [Compound I-22, 3-(5-(6-(ethylamino)pyridazin-3-yl)-1-oxoisoindolin-2-yl)piperidine-2,6-dione], the “IKZF2 % protein reduction at 10 μM, 24 h” value on IKZF2 stood at 60%.

Take `O=C1CCC(N2Cc3cc(-c4ccc(Cc5ccccc5)nn4)ccc3C2=O)C(=O)N1` (stereo not shown) [Compound I-24, 3-(5-(6-benzylpyridazin-3-yl)-1-oxoisoindolin-2-yl)piperidine-2,6-dione]: the “IKZF2 % protein reduction at 10 μM, 24 h” value at IKZF2 (setting [1]) was determined as 90%.

For the molecule `CO[C@H]1CC[C@H](Cc2ccc(-c3ccc4c(c3)CN(C3CCC(=O)NC3=O)C4=O)nn2)CC1` (stereo partly shown) [Compound I-25], the “IKZF2 % protein reduction at 10 μM, 24 h” value on IKZF2 was 68%.

As to `COc1cc(Cc2ccccc2)nnc1-c1ccc2c(c1)CN(C1CCC(=O)NC1=O)C2=O` (stereo not shown) [Compound I-28, 3-(5-(6-benzyl-4-methoxypyridazin-3-yl)-1-oxoisoindolin-2-yl)piperidine-2,6-dione], the “IKZF2 % protein reduction at 10 μM, 24 h” value on IKZF2 amounted to 73%.

`CCn1nc(-c2ccc3c(c2)CN(C2CCC(=O)NC2=O)C3=O)cc1OC` (stereo not shown) [Compound I-34, 3-(5-(1-ethyl-5-methoxy-1H-pyrazol-3-yl)-1-oxoisoindolin-2-yl)piperidine-2,6-dione]: on IKZF2, the “IKZF2 % protein reduction at 10 μM, 24 h” value was 50%.

Turning to `COc1cc(-c2ccc3c(c2)CN(C2CCC(=O)NC2=O)C3=O)nn1Cc1ccccc1` (stereo not shown) [Compound I-40, 3-(5-(1-benzyl-5-methoxy-1H-pyrazol-3-yl)-1-oxoisoindolin-2-yl)piperidine-2,6-dione], the “IKZF2 % protein reduction at 10 μM, 24 h” value at IKZF2 was determined as 80%.

Take `O=C1CCC(N2Cc3cc(-c4cccnn4)ccc3C2=O)C(=O)N1` (stereo not shown) [Compound I-42, 3-(1-oxo-5-(pyridazin-3-yl)isoindolin-2-yl)piperidine-2,6-dione]: at IKZF2, the “IKZF2 % protein reduction at 10 μM, 24 h” value came out at 80%.

Consider `CCN(CC)Cc1ccc(-c2ccc3c(c2)CN(C2CCC(=O)NC2=O)C3=O)nn1` (stereo not shown) [Compound I-43, 3-(5-(6-((diethylamino)methyl)pyridazin-3-yl)-1-oxoisoindolin-2-yl)piperidine-2,6-dione], for which the “IKZF2 % protein reduction at 10 μM, 24 h” value on IKZF2 worked out at 40%.

On to `O=C1CCC(N2Cc3cc(-c4nc5ncccc5[nH]4)ccc3C2=O)C(=O)N1` (stereo not shown) [Compound I-46, 3-(5-(1H-imidazo[4,5-b]pyridin-2-yl)-1-oxoisoindolin-2-yl)piperidine-2,6-dione], for which the “IKZF2 % protein reduction at 10 μM, 24 h” value on IKZF2 came to 80%.

Take `Nc1cccc2c1C(=O)N(C1CCC(=O)NC1=O)C2=O` (stereo not shown) [Control, Pomalidomide]: the “IKZF1 degradation @ 10 μM” value at IKZF1 is given as “(80%”.

(Values after US20230271940A1, “HETEROARYL SUBSTITUTED 3-(1-OXOISOINDOLIN-2-YL)PIPERIDINE-2,6-DIONE DERIVATIVES AND USES THEREOF” (Novartis AG, priority 2020, published 2023).)
